The target in one data set is T1, human A1R (Homo sapiens, UniProt P30542).
T1 sequence (P30542 1-326): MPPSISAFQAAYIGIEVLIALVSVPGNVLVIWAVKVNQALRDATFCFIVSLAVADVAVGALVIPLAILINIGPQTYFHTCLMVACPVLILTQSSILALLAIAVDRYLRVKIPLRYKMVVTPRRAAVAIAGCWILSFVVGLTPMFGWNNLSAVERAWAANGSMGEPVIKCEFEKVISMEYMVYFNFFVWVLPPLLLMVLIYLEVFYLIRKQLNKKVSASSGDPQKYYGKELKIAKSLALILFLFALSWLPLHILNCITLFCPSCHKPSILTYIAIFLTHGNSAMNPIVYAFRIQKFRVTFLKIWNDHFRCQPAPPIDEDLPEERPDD
Briefly: BRET assay for β-arrestin2 recruitment in HEK 293 cells. In kind it is cell-based. The note with it: data not shown. How it is done:
(§1) Data Analysis. […] Statistical significance was tested as indicated in the text using paired or unpaired t-tests or one-way or two-way ANOVAs with repeated measures (RM) as appropriate. Bonferroni corrections for multiple comparisons were performed. All in vitro cell signalling assay data was analysed using Prism 7.0e (Graphpad software, San Diego, Calif.), with all concentration-response curves being fitted using a 3 parameter logistic equation to calculate response range and IC50. All cAMP data was normalised to a forskolin concentration-response curve ran in parallel to each assay. […] Radioligand displacement curves were fitted to the one-site competition binding equation yielding log Ki values. […] To determine the extent of ligand-induced recruitment of β-arrestin2-YFP to either the A1R or A3R, the BRET signal was calculated by subtracting the 530 nm/450 nm emission for vehicle-treated cells from ligand-treated cells (ligand-induced ΔBRET). ΔBRET for each concentration at 5 minutes (maximum response) was used to produce concentration-response curves.
Background: BRET reads energy transfer from a luciferase to a nearby fluorophore.

In data set [1] the test system is membrane potential of pyramidal cells. Description: Whole cell current clamp recording of membrane potential, CA1 pyramidal cells. In kind it is cell-based, rat. How it is done: (§2) Preparation of hippocampal slices: Sagittal slices of hippocampus (300-400 μm) were prepared from male Sprague Dawley rats, at postnatal days 12 to 20. Rats were kept on a 12-hour light-dark cycle with slices made 90 minutes after entering the light cycle. […] The brain was removed, cut down the mid line and the two sides of the brain stuck down to a metal base plate. […] Slices were stored at 34° C. for 1 to 6 hours in aCSF (1 mM MgCl2, 2 mM CaCl2) before use.
Whole cell patch clamp recording from hippocampal pyramidal cells: A slice was transferred to the recording chamber and perfused at 3 mL/min with aCSF at 32±0.5° C. Slices were visualised using IR-DIC optics with an Olympus BX151W microscope (Scientifica) and a CCD camera (Hitachi). […] Voltage and current recordings were obtained using an Axon Multiclamp 700B amplifier (Molecular Devices, USA) and digitised at 20 KHz. Data acquisition and analysis was performed using Pclamp 10 (Molecular Devices). For voltage clamp experiments, CA1 pyramidal cells were held at −60 mV. Peptides to interfere with G protein signalling were introduced via the patch pipette into the recorded cell.

A further data set has as its system isolated frog heart. Briefly: Frog heart preparation, heart rate. More on the design: species or system Xenopus leavis. The note with it: adenosine 30 μM, BnOCPA 300 nM. How it is done:
Frog heart preparation: Xenopus […] frogs (young adult males) were supplied from Portsmouth Xenopus Resource Centre. Frogs were euthanized with MS222 (0.2% at a pH of 7), decapitated and pithed. The animals were dissected to reveal the heart and the pericardium carefully removed. Heart contractions were measured with a force transducer (AD instruments). Heart rate was acquired via a PowerLab […] (AD instruments) controlled by LabChart 7 (AD instruments). The heart was regularly washed with ringer and drugs were applied directly to the heart.

A further data set has as its system Gob. Description: cAMP accumulation in PTX-pre-treated CHO-K1-hA1R cells transfected with PTX-insensitive Gob. It counts as cell-based, human. The method, then: (§3) Cells were then incubated for 24 hours before addition of 100 ng/ml PTX, to inhibit activity of endogenous Gαi/o, and then incubated for a further 16-18 hours. Transfected cells were then assayed as per cAMP inhibition experiments, but co-stimulated with agonist and 100 nM forskolin.
as §1
(In general: Cyclic AMP is a second messenger, typically raised through Gs and lowered through Gi signalling.)

Data set [2] has as its system synaptic transmission in the hippocampus. Briefly: Extracellular fEPSP recording in hippocampal slices (synaptic transmission). It counts as cell-based, rat. The settings on record: rat hippocampal slices, CA1; read-out: IC50, inhibition of synaptic transmission (fEPSP slope). How it is done: as §2
Extracellular recording: A slice was transferred to the recording chamber, submerged in aCSF and perfused at 4 to 6 mL/min (32° C.). The slice was placed on a grid allowing perfusion above and below the tissue and all tubing was gas tight (to prevent loss of oxygen). For extracellular recording, an aCSF filled microelectrode was placed on the surface of stratum radiatum in CA1. […] For fEPSPs a 10 to 20 minute baseline was recorded at a stimulus intensity that gave 40 to 50% of the maximal response. […] For fEPSP slope, a 1 ms linear region after the fibre volley was measured. Extracellular recordings were made independently on two electrophysiology rigs.
Statistical significance was tested using the unpaired t-test and one-way and two-way ANOVAs with Bonferroni correction for multiple comparisons.
as §1

Data set [3] has as its system seizure activity induced in hippocampal slices. Description: Seizure model in hippocampal slices (no added Mg2+, 6 mM K+ aCSF). In kind it is cell-based, rat. The settings on record: adenosine 20-100 μM, NECA 300 nM, CPA 300 nM, BnOCPA 300 nM to 1 μM. How it is done:
as §2
Seizure model: Seizure activity was induced in hippocampal slices using aCSF which contained no added Mg^2+ and with the total K^+ concentration increased to 6 mM with KCl. Removal of extracellular Mg^2+ facilitates NMDA receptor activation producing long lasting EPSPS, which can sum together to produce tonic activation. Increasing the extracellular concentration of K^+ depolarises neurons leading to firing and release of glutamate to sustain activity. Both the increase in K^+ concentration and removal of Mg^2+ are required to produce spontaneous activity in hippocampal slices. Spontaneous activity was measured with an aCSF-filled microelectrode placed within stratum radiatum in CA1.

A further data set deals with T2, human (h) A1R (Homo sapiens, UniProt P30542).
T2 sequence (P30542 1-326): T1 sequence (P30542 1-326)
Briefly: Radioligand binding, [3H]DPCPX, membranes of CHO-K1-hA1R cells. The note with it: displacement of [3H]DPCPX. How it is done: Radioligand binding. Radioligand displacement assays were conducted using crude membrane preparations (100 μg protein per tube) acquired from homogenisation of CHO-K1-hA1R cells in ice-cold buffer (2 mM MgCl2, 20 mM HEPES, pH 7.4). […] Non-specific binding was determined in the presence of 10 μM DPCPX. […] Free radioligand was separated from bound radioligand by filtration through Whatman® glass microfiber GF/B 25 mm filters (Sigma-Aldrich). Each filter was then placed in a Sterilin™ scintillation vial and radioactivity determined by: addition of 4 mL of Ultima Gold XR liquid scintillant (PerkinElmer), overnight incubation at room temperature and the retained radioactivity determined using a Beckman Coulter LS 6500 Multi-purpose scintillation counter (Beckman Coulter Inc.; Indiana, USA).
Data Analysis. […] Statistical significance was tested as indicated in the text using paired or unpaired t-tests or one-way or two-way ANOVAs with repeated measures (RM) as appropriate. Bonferroni corrections for multiple comparisons were performed. All in vitro cell signalling assay data was analysed using Prism 7.0e (Graphpad software, San Diego, Calif.), with all concentration-response curves being fitted using a 3 parameter logistic equation to calculate response range and IC50. All cAMP data was normalised to a forskolin concentration-response curve ran in parallel to each assay. […]
For orientation: Loss of bound radioactivity is the signal in a displacement assay; it reports binding, not function.

The next data set relates to Goa. In kind it is cell-based, human. The settings on record: PTX-treated cells. The method, then:
as §3, §1

Data set [4] has as its system synaptic transmission in spinal nociceptive afferents. Briefly: Dorsal root afferent-evoked EPSPs in dorsal horn neurones, rat spinal cord slices. The note with it: rat lumbar spinal cord slices, 0.1 Hz. In kind it is cell-based.
Experimental: Spinal cord slice preparation: Adult male Sprague-Dawley rats, aged 8-12 weeks (260-280 g), were housed in an air-conditioned room on a 12 hour light/dark cycle with food and water available ad libitum. Rats were terminally anaesthetized using isofluorane and decapitated. […] A laminectomy was performed and the spinal cord and associated roots gently dissected and teased out of the spinal column and surrounding tissues. Dura and pia mater and ventral roots were subsequently removed with fine forceps and the spinal cord hemisected. Care was taken to ensure dorsal root inputs to the spinal cord were maintained. The hemisected spinal cord-dorsal root preparations were secured to a tissue slicer and spinal cord slices (400-450 μm thick) with dorsal roots attached cut in chilled (<4° C.) high sucrose aCSF using a Leica VT1000s microtome. Slices were transferred to a small beaker containing ice-cold standard aCSF (see below) and rapidly warmed to 35±1° C. in a temperature-controlled water bath over a 20 minute period, then subsequently removed and maintained at room temperature (22±2° C.) prior to electrophysiological recording.
Spinal cord electrophysiological recording: For electrophysiological recording, a spinal cord slice was transferred to a custom-built chamber. […]
Data set [5] concerns urethane-anaesthetised, spontaneously breathing adult rats. Briefly: In vivo anaesthetised rat preparation, respiration.
Data set [6] has the same test system. Description: In vivo anaesthetised rat preparation, heart rate and mean arterial blood pressure. The note with it: IV; adenosine 1 mg·kg^−1, BnOCPA 10 μg·kg^−1, CPA 420 ng·kg^−1.
[7] abbreviates: IV bolus, BnOCPA 8.3 ug/kg, CPA 6.3 μg·kg^−1.

Structures are written as SMILES. “Also recorded” adds a separate entry of the source.

By IC50 is commonly meant the concentration at which inhibition is half-maximal. As for `OC[C@H]1O[C@@H](n2cnc3c(NC4CCCC4)ncnc32)[C@H](O)[C@@H]1O` [CPA, N-Cyclopentyladenosine], the “β-arrestin recruitment at the A1R” value at human A1R is reported as “no β-arrestin recruitment”. Further, in data set [1] (CPA 300 nM after BnOCPA 300 nM, 10 minutes), the “mean hyperpolarisation by CPA in the presence of BnOCPA” value is 2.7±2 mV. In addition, in data set [1] (adenosine 100 μM, CPA 300 nM), the “membrane potential after agonist” value is −71.3±1.4 mV. Moreover, in data set [1] (adenosine 100 μM, CPA 300 nM, BnOCPA 300 nM-1 μM), the “mean change of membrane potential (hyperpolarisation)” value is listed as −7.3±0.85 mV. In data set [1] (example traces, CA1 pyramidal cells), the “effect on membrane potential” value is recorded as “hyperpolarised the membrane potential”. For the same compound, the “effect on isolated frog heart rate” value with isolated frog heart is “reduced the isolated frog heart rate similar to adenosine”. In the data set with isolated frog heart (CPA), the “reduction / change of heart rate” value amounted to 6.2±0.5 BPM. For the same compound, the “inhibition of cAMP accumulation via Gob” value in the data set on Gob was “inhibit cAMP accumulation through coupling to Gob”. In [2], the IC50 came out at 11.8 ± 2.7 nM. Further, the “effect on seizure activity” value in data set [3] was “completely suppressed neuronal firing; also recorded: abolished seizure activity”. Also, the “binding affinity at the A1R (comparison)” value on human (h) A1R is “equal affinity”. Besides, the “activation of / coupling to Goa” value in the data set with Goa is “coupled to a range of Gi/o subunits, and in particular Goa”. In addition, the “effect on dorsal root afferent-evoked EPSPs” value in [4] was “significant reduction in amplitude of the EPSPs in CPA, comparable to that of BnOCPA”. For the same compound, in data set [5] (setting [7]), the “minute ventilation (VE) after injection” value was 99 ± 19 mL/min, the “respiratory frequency (f) after injection” value is 108±10 BrPM and the “tidal volume (VT) after injection” value came to 0.8 ± 0.1 mL. For the same compound, the effect on respiration entry in data set [5] (intravenous injection) is “caused significant respiratory depression”. Further, in data set [6], the “change of HR” value is given as “about 50%”, the “heart rate (HR) after injection” value is 207±29 BPM and the “mean arterial blood pressure (MAP) after injection” value stood at 51±5 mmHg.

Values taken from US20220152077A1 (THE UNIVERSITY OF WARWICK, priority 2019, published 2022).
